pIC50: −log10 of the molar value.
Assays:
IDH1 R132H = IDH1 R132H (Homo sapiens, UniProt O75874, R132H); assay: In vitro assay for IDH1 R132H inhibitors (NADPH/aKG, resazurin detection); type: biochemical; details: Table 4B; 0.2 μg/ml IDH1 R132H, 50 minutes at room temperature; read-out: IC50, IDH1 R132H Inhibition
Procedure, shortened: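 Reaction ran 50 min at room temperature in Tris pH 7.5 buffer with 150 mM NaCl, 10 mM MgCl2 and 0.03% BSA. Mix concentrations were 0.2 μg/ml mutant enzyme, 8 uM NADPH and 2 mM aKG. Detection added 30 μM resazurin, with resorufin fluorescence (Ex544/Em590) measured 5 min later.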

U87MG cells = assay: Cellular assay: inhibition of 2-HG production in U87MG cells (LC-MS, 48 hours); type: cell-based; details: Homo sapiens, U-87 MG, 2-HG in media by LC-MS
Procedure, shortened: (§1)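 HT1080 or U87MG cells (5000/well, DMEM + 10% FBS) seeded overnight, then exposed to compound (0.2% DMSO final) for 48 h; medium 2-HG measured by LC-MS. Viability read by CellTiter-Glo luminescence at 72 h.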

HT1080 cells = assay: Cellular assay: inhibition of 2-HG production in HT1080 cells (LC-MS, 48 hours); type: cell-based; details: Homo sapiens, HT-1080, 2-HG in media by LC-MS
Procedure, shortened: as §1

Chain of IDH1 R132H (O75874 whole entry R132H): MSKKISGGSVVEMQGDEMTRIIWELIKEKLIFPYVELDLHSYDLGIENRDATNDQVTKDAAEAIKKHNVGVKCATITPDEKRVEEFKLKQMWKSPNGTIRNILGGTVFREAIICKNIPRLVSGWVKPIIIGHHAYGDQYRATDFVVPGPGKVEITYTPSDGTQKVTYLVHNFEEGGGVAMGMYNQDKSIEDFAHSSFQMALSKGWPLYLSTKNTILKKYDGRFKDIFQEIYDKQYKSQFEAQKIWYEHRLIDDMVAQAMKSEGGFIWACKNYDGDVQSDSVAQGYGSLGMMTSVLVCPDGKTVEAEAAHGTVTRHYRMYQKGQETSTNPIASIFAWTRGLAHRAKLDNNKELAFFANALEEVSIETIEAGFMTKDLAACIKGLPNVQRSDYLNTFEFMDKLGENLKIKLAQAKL

Structure (SMILES) | pIC50 (IDH1 R132H) | pIC50 (U87MG cells) | pIC50 (HT1080 cells)
O=C(NC1CCCCC1)C(c1ccccc1F)N(C(=O)Cn1ccc2ncccc21)c1cccc(F)c1 (stereo not drawn) [Compound 324] | 6.00 to 7.00 | 6.00 to 6.60 | 5.30 to 6.00
Cc1ccccc1C(C(=O)NC1CCCCC1)N(C(=O)Cn1ccnc1N)c1cccc(F)c1 (stereo not drawn) [Compound 326] | 6.00 to 7.00 | ≥ 6.60 | 6.00 to 6.60
Cc1ccccc1C(C(=O)NC1CCCCC1)N(C(=O)CNc1ccc(-c2nnco2)cc1)c1cccc(F)c1 (stereo not drawn) [Compound 290] | ≥ 7.00 | 6.00 to 6.60 | ≥ 6.60
CC(=O)Oc1ccc(C(=O)N(c2cccc(F)c2)C(C(=O)NC2CCCCC2)c2ccccc2C)cc1 (stereo not drawn) [Compound 215, Acetic acid 4-[(cyclohexylcarbamoyl-o-tolyl-methyl)-(3-fluoro-phenyl)-carbamoyl]-phenyl ester] | 6.00 to 7.00 | 6.00 to 6.60 | 6.00 to 6.60
COc1ccccc1CNCC(=O)N(c1cccc(F)c1)C(C(=O)NC1CCCCC1)c1ccccc1C (stereo not drawn) [Compound 220] | 6.00 to 7.00 | 5.30 to 6.00 | 5.30 to 6.00
Cc1ccccc1C(C(=O)NC1CCCCC1)N(C(=O)COc1ccncc1)c1cccc(F)c1 (stereo not drawn) [Compound 199] | 6.00 to 7.00 | 5.30 to 6.00 | 5.30 to 6.00
Cc1ccccc1[C@@H](C(=O)NC1CCCCC1)N(C(=O)[C@H]1CCCCN1S(C)(=O)=O)c1cccc(F)c1 [Compound 346] | 6.00 to 7.00 | 6.00 to 6.60 | 6.00 to 6.60
Cc1ccccc1C(C(=O)NC1CCCCC1)N(C(=O)Cn1ccnc1C)c1cccc(Br)c1 (stereo not drawn) [Compound 268] | 6.00 to 7.00 | ≥ 6.60 | 5.30 to 6.00
Cc1ccccc1[C@@H](C(=O)NC1CCCCC1)N(C(=O)[C@H]1CCCN1S(C)(=O)=O)c1cccc(F)c1 [Compound 363] | 6.00 to 7.00 | 6.00 to 6.60 | 5.30 to 6.00
CN(C)C(=O)Oc1ccc(CC(=O)N(c2cccc(F)c2)C(C(=O)NC2CCCCC2)c2ccccc2F)cc1 (stereo not drawn) [Compound 313] | ≥ 7.00 | ≥ 6.60 | ≥ 6.60

Next, values leading:

pIC50 (IDH1 R132H) | pIC50 (U87MG cells) | pIC50 (HT1080 cells) | Structure (SMILES)
6.00 to 7.00 | 6.00 to 6.60 | ≥ 6.60 | Cc1ccccc1C(C(=O)NC1CCCCC1)N(C(=O)CNc1cccc(F)n1)c1cccc(F)c1 (stereo not drawn) [Compound 302]
6.00 to 7.00 | 5.30 to 6.00 | 6.00 to 6.60 | Cc1ccccc1C(C(=O)NC1CCCCC1)N(C(=O)CN1CCCc2ccccc21)c1ccn(C)n1 (stereo not drawn) [Compound 245]
6.00 to 7.00 | 5.30 to 6.00 | 6.00 to 6.60 | Cc1ccccc1C(C(=O)NC1CCCCC1)N(C(=O)CNCc1ccccn1)c1cccc(F)c1 (stereo not drawn) [Compound 172]
6.00 to 7.00 | 5.30 to 6.00 | < 5.30 | CC(=O)Nc1cccc(N(C(=O)Cn2ccnc2C)C(C(=O)NC2CCCCC2)c2ccccc2C)c1 (stereo not drawn) [Compound 236]
≥ 7.00 | 6.00 to 6.60 | ≥ 6.60 | COC(=O)N1CCN(CC(=O)N(c2cccc(F)c2)C(C(=O)NC2CCCCC2)c2ccccc2C)CC1 (stereo not drawn) [Compound 185]
≥ 7.00 | ≥ 6.60 | ≥ 6.60 | Cc1ccccc1C(C(=O)NC1CCCCC1)N(C(=O)Cc1ccncc1)c1cccc(F)c1 (stereo not drawn) [Compound 311]
6.00 to 7.00 | 5.30 to 6.00 | 6.00 to 6.60 | Cc1ccccc1[C@@H](C(=O)NC1CCCCC1)N(C(=O)[C@H]1CCCCN1C(=O)OC(C)(C)C)c1cccc(F)c1 [Compound 332]
≥ 7.00 | ≥ 6.60 | ≥ 6.60 | N#Cc1ccc(NCC(=O)N(c2cccc(F)c2)C(C(=O)NC2CCCCC2)c2ccccc2Cl)cc1 (stereo not drawn) [Compound 322]
6.00 to 7.00 | 6.00 to 6.60 | 6.00 to 6.60 | Cc1ccccc1C(C(=O)NC1CCCCC1)N(Cc1cccs1)C(=O)Cn1cnc2ccccc21 (stereo not drawn) [Compound 167]
6.00 to 7.00 | 5.30 to 6.00 | 5.30 to 6.00 | Cc1ccccc1C(C(=O)NC1CCCCC1)N(C(=O)COC1CCCC1)c1cccc(F)c1 (stereo not drawn) [Compound 230]
6.00 to 7.00 | 5.30 to 6.00 | 6.00 to 6.60 | Cc1ccccc1C(C(=O)NC1CCCCC1)N(C(=O)CNCc1ccn(C)n1)c1cccc(F)c1 (stereo not drawn) [Compound 256]

From patent publication US20130184222A1, “[…] ACTIVE COMPOSITIONS AND THEIR METHODS OF USE” (AGIOS PHARMACEUTICALS, INC, priority 2010, published 2013)
